Measured values from USRE49035E1, “Traditional Chinese medicine composition, and preparation and application thereof” (Tasly Pharmaceutical Group Co., Ltd., priority 2013, dated 2022).

Key:
Assay type in all cases: in vivo
[1] = test system: AA-induced platelet aggregation; assay: AA-induced platelet aggregation rate trial in rabbits; settings: AA final 80 μg/ml; dose 60 mg/kg intragastrically once a day for 7 d
Description: (§1) The rabbits were randomly grouped into 4 groups: the model group was given with distilled water, the aspirin group ([…]), Extract A groups of low dose and high dose at 42 and 84 mg/kg (respectively 1 2 times of clinic equivalent dosage), intragastrically administrated, once a day for 7 consecutive days. The volume of medicine administrated was 1 ml/kg body weight. 60 min after intragastric administration on 7th day, the animals were anesthetized locally, blooded through carotid artery, anticoagulated with sodium citrate (3.8%) 1:9 and centrifugated at 1000 r/min for 10 min. Platelet-rich plasma (PRP) was taken and the remain centrifugated at 3000 r/min to take platelet-poor plasma (PPP. Aggregation was induced by ADP (final concentration 3 μg/ml), AA (final concentration 80 μg/ml) and collagen (5 μg/ml). […] platelet aggregation & coagulation factor analyzer was used to measure the maximum platelet aggregation rate and to calculate inhibition rate according to following formula. [formula]

[2] = test system: collagen-induced platelet aggregation; assay: Collagen-induced platelet aggregation rate trial in rabbits; settings: collagen 5 μg/ml; dose 60 mg/kg intragastrically once a day for 7 d
Description: as §1

[3] = test system: ADP-induced platelet aggregation; assay: ADP-induced platelet aggregation rate trial in rabbits; settings: ADP final 3 μg/ml; dose 60 mg/kg intragastrically once a day for 7 d
Description: as §1

CC(=O)Oc1ccccc1C(=O)O [Aspirin]
Platelet aggregation rate [1]: 5.80 ± 1.85 %
Platelet aggregation rate [2]: 6.06 ± 2.07 %
Platelet aggregation rate [3]: 19.15 ± 4.08 %
